According to US20260234188A1, “CHEMOKINE-BINDING PEPTIDES” (Oxford University Innovation Limited, priority 2022, published 2026):
“Also recorded” adds a separate entry of the source.

What follows are substances tested on panel of 24 biotinylated chemokines (assay: Phage-display screen of HD2 NNK saturation mutagenesis library). Conditions: HD2 saturation mutants; chemokines on streptavidin beads; UniProt entry names.
Format: binding, human
Source text: FIG. 7. Exemplar results from phage display screens using saturation mutagenesis. A phage-display library was constructed using the HD2 sequence, replacing each residue encoding codon with the degenerate sequence NNK. The 16 degenerate sequences (which also encoded the parental HD2 sequence) were pooled and cloned into display phage. […] Exemplar peptides were selected such that log 2 E for at least one chemokine was greater than 5, and log 2 E for binding to control (CO5, was less than zero). […] The fold enrichment of parental HD2 is also indicated.
A phage-display library was constructed using the HD2 sequence, replacing each residue encoding codon with the degenerate sequence NNK. The 16 degenerate sequences (which also encoded the parental HD2 sequence) were pooled and cloned into display phage. […] Exemplar peptides were selected such that log 2 E for at least one chemokine was greater than 5, and log 2 E for binding to control (CO5, was less than zero). […] The fold enrichment of parental HD2 is also indicated.
A molecular level understanding of binding mechanism is needed for development of peptides as therapeutics and is usually obtained from structural analyses. As HD2 binds many chemokines this becomes a challenging task, and we explored if we could elucidate this using phage display mutagenesis. The role of each residue in HD2 for binding was examined in phage-display. A library of HD2 mutations that had NNK substituted at each residue and performed phage-display selection against a panel of 24 biotinylated chemokines, in parallel, as described in Example 7. This strategy allowed us to evaluate the impact not only of Ala substitutions, but also conservative, hydrophilic and hydrophobic substitutions, and compare with binding of parental HD2 which is also included in the library. Ala substitution removes side-chains beyond the β-carbon and can be used to infer the role of side-chain functional groups without affecting conformational flexibility of the backbone. […] These residues are within the two motifs identified previously. Other notable residues identified were Y8 and P10. We next judged the impact of Ala mutation by calculating the change in log 2 E (Δlog 2 E) between the mutant and parental HD2. A positive value of Δlog 2 E indicates increased binding, and a negative value decreased binding compared to parental HD2. […] As may be seen, the log 2 E for the parental HD2 was ~0 in these analyses indicating lack of enrichment.
Oligonucleotide pools were amplified using primers: oligo_fwd: 5′-[…] and oligo_rev2: 5′-tcgtcaccctcggcgcctcctcoggatcctccacc. Oligonucleotide PCR products were cloned into plasmid prSTOP4Nsi using NEB Builder HiFi Assembly following instructions of the manufacturer. The vector pool was used to transform electrocompetent Invitrogen ElectroMAX™ DH5α-E™ cells. Plasmid DNA was harvested by MaxiPrep (GeneJet Plasmid Maxiprep Kit) and was transformed into SS320 phage display electrocompetent cells (Lucigen), following the manufacturer's protocol, resuspended in 950 μL recovery media for each electroporation, transferred to 50 mL Falcon tubes, 100 μL 1011 CFU/mL M13KO7 helper phage (NEB) added and shaken at 37° C., 220 RPM for 1 h. 1 mL recovery culture was added to 2YT medium containing +50 ug/mL carbenicillin and 25 ug/mL kanamycin, and grown overnight at 37C, 220 rpm. Phage was precipitated from the culture supernatant by adding 22.5 mL of supernatant to 4.5 mL 20% PEG 8000/2.5 M NaCl, incubating on ice for 30 min, and centrifuging at 10,000 RPM, 4° C. for 10 min, and resuspending phage in 1 ml of PBT, followed by centrifugation at 13000 RPM, 4° C., for 10 min. […]

Substance | Chemokines Bound log2E 1-5 | Chemokines Bound log2E > 5
EEDDYTAYAPFTCYFT [HD2_F11] | CCL18, CXL11, CXL13, CXL14 | CCL20
EEDDYSAYAPLTCYFT [HD2_S6] | CCL11, CCL15, CCL17, CCL18,; also recorded: CCL2, CCL22, CCL4, CCL5, CCL8,; also recorded: X3CL1, CXL10, SDF1, CXL13, IL8 | CCL1, CCL3
EEEDYTAYAPLTCYFT [HD2_E3] | CCL8, X3CL1; also recorded: CCL1, CCL11, CCL15, CCL17,; also recorded: CCL18, CCL22, CCL4, CCL5, | CCL3
EEDDYTAYAPQTCYFT [HD2_Q11] | CCL1, CCL11, CCL15, CCL18,; also recorded: CCL22, CCL4, CCL5, CCL8 | CCL17
EEDDYTAYAPVTCYFT [HD2_V11] | CCL1, CCL11, CCL15, CCL18,; also recorded: CCL2, CCL22, CCL28, CCL3,; also recorded: CCL4, CCL5, CCL8, CXL10,; also recorded: CXL11, CXL13 | CCL17
EEDDYTAYADLTCYFT [HD2_D1C] |  | CXL11
EEDDYTEYAPLTCYFT [HD2_E7] | CCL1, CCL11, CCL15, CCL18,; also recorded: CCL2, CCL22, CCL28, CCL3,; also recorded: CCL4, CCL5, CCL8, X3CL1,; also recorded: CXL10, CXL14, IL8 | SDF1, CXL13
EEDDYTAYAPYTCYFT [HD2_Y11] | CCL1, CCL11, CCL15, CCL17,; also recorded: CCL18, CCL19, CCL2, CCL20,; also recorded: CCL3, CCL4, CCL5, CCL8, X3CL1,; also recorded: CXL11, CXL13, CXL14 | CCL22
EEDDYTAYAPLTCYFD [HD2_D16] | CCL1, CCL11, CCL17, CCL18,; also recorded: CCL2, CCL22, CCL3, CCL4, CCL5,; also recorded: CCL8, X3CL1, CXL10, CXL11,; also recorded: CXL13, CXL14 | SDF1
EEDDYEAYAPLTCYFT [HD2_E6] | CCL1, CCL11, CCL15, CCL17,; also recorded: CCL18, CCL19, CCL2, CCL22,; also recorded: CCL28, CCL3, CCL4, CCL5, CCL8,; also recorded: X3CL1, CXL10, CXL11, CXL14 | SDF1, CXL13
EEDDYTDYAPLTCYFT [HD2_D7] | CCL1, CCL11, CCL15, CCL17, and CCL18, CCL19, CCL2, CCL22, and CCL28, CCL3, CCL4, CCL5, CCL8, and X3CL1, CXL10, CXL11, CXL14, and IL8 | SDF1, CXL13
EEDDYTAYAPLHCYFT [HD2_H12] | CCL15, CCL28, CCL4, CCL5 | CCL22
EEDDYTAYAPLVCYFT [HD2_V12] | CCL18, CCL25, CCL28, CCL4,; also recorded: CCL8, X3CL1, CXL10, SDF1,; also recorded: CXL13, CXL14 | CCL19
EEDDYTAYAPLICYFT [HD2_112] | CCL18, CCL25, CCL28, CCL4,; also recorded: X3CL1, CXL10, SDF1, CXL13,; also recorded: CXL14 | CCL19
EEDDYTAYAPTTCYFT [HD2_T11] | CCL11, CCL17, CCL18, CCL22,; also recorded: CCL4, CCL5, CCL8 | CCL15

Same assay, conditions: best mutation at each residue

Substance | peak log 2 E
EEDDYTAYADLTCYFT [HD2_D1C] | highest peak log 2 E at that residue
EEDDYTAYAPLICYFT [HD2_112] | highest peak log 2 E at that residue

Same assay, conditions: conservative residue substitutions (Dayhoff PAM250), mutant versus parental HD2

Substance | effect on Δlog 2 E
EEDDYTAYAPLTSYFT [HD901] | significant deleterious effect

Same assay, conditions: over XC (CXC/CX3C) chemokines

Substance | mean log 2 E compared to parental HD2
EEDDYTWYAPLTCYFT [A7W] | significant improvement

Same assay, conditions: over all chemokines

Substance | mean log 2 E compared to parental HD2
EDDDYTAYAPLTCYFT [E2D] | enhancement over the parental that was not statistically significant
EEDDYTDYAPLTCYFT [HD2_D7] | significant improvement
DEDDYTAYAPLTCYFT [E1D] | enhancement over the parental that was not statistically significant

The substances below were run on panel of up to 42 human chemokines (assay: Phage-display next generation sequencing screen of overlapping hexadecapeptide libraries, chemokines displayed on streptavidin beads). Conditions: log2E greater than 5, chemokines named by first part of UniProt Entry Name.
Format: binding
Summary of the method: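 Phage-display libraries of 55662 overlapping hexadecapeptides from tick and viral chemokine-binding proteins, human chemokines and chemokine receptors screened against up to 42 human chemokines, with hits found by next-generation sequencing. Peptides mapped to parent-protein position with log2 fold enrichment; regions of interest where cumulative residue log2 E exceeds the 95% upper CI of the protein median.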

Substance | Chemokines Bound
CR2586 (CILVWLLAFCVSLPDT) | CCL20, CCL28,; also recorded: CXL10, CXL11,; also recorded: CXL14
CR23945 (TVITFSLYVGQFLAYV) | CCL1, CCL15,; also recorded: CCL20, CCL22,; also recorded: CCL28, CXL10,; also recorded: CXL11, SDF1,; also recorded: CXL13
CR3161 (DFSAILLYIDDFSAYF) | CCL17, CCL18,; also recorded: X3CL1, CXL10,; also recorded: SDF1, CXL13,; also recorded: CXL14
CR25375 (VLVIGSLVARWLLGIQ) | CCL18, CCL19,; also recorded: CCL20
CR24960 (VIMMTWFYAFFYSTVQ) | CCL1, CCL17,; also recorded: CCL18, CCL2,; also recorded: CCL22, CCL25,; also recorded: CCL28, CCL5,; also recorded: X3CL1, CXL11,; also recorded: CXL13, IL8

Same assay, conditions: log2E greater than 5, chemokines named by first part of UniProt Entry Name, peptides binding complement C5a (control) excluded

Substance | Chemokines Bound
LTDGTACYVVERKVWD [HD2313] | CCL19, CCL20,; also recorded: CCL28
CR6604 (FYVAMFASLCFITEIA) | CXL10, CXL11, and SDF1, CXL13, and IL8
CR7856 (GWVFIFSSIQLCTVVF) | CCL1, CCL19, and CCL20, CCL25, and CXL10, SDF1, and IL8
CR8546 (IAAFSWFMLSLPLLFL) | CCL22, CCL28,; also recorded: CXL14
VP7819 (RLEELYLTVASMFERL) | CCL1, CCL11,; also recorded: CCL17, CCL19,; also recorded: CCL2, CCL22,; also recorded: CCL28, CXL10
CR8784 (IFAIVVAYFLSWGPYN) | CCL1, CCL15, and CCL17, CCL18, and CCL2, CCL20, and CCL22, CCL25, and CCL28, X3CL1, and CXL10, CXL11, and SDF1, CXL14, and IL8

Same assay, conditions: log2E greater than 5, chemokines named by first part of UniProt entry name, C5a (control) binders excluded

Substance | Chemokines Bound
CR15079 (LYAHLASAFLWVVVAV) | CCL17, CCL18,; also recorded: CCL20, CCL22,; also recorded: CCL28, X3CL1,; also recorded: CXL10, CXL11,; also recorded: SDF1, CXL13,; also recorded: CXL14, IL8
CR11719 (LATFKILIAIVWGVMP) | CCL1, CCL18,; also recorded: CCL20, CCL22,; also recorded: CCL25, CCL28,; also recorded: CXL10, SDF1
CR11556 (LAKLEAFFLNLSIYWS) | CCL18, CCL2, and CCL25, CCL28, and CCL8, X3CL1, and CXL10, CXL11, and SDF1, CXL13, and IL8
CR18955 (RFRQYLKAFLAAVLGW) | CCL17, CCL18,; also recorded: CXL14
CR10275 (IYLLNLAISDLFFLLT) | CCL17, CCL18,; also recorded: CCL25, CXL10,; also recorded: CXL13
CR22786 (TFTGLIAAFSWFMLSL) | CCL11, CCL17,; also recorded: CCL18, CCL2,; also recorded: CCL20, CCL22,; also recorded: CCL28, X3CL1,; also recorded: SDF1, IL8
CK3274 (LRCVCLQTTQGVHPKM) | X3CL1, CXL10,; also recorded: CXL11
CR13324 (LLMLGLELLFGFFIPL) | CCL1, CCL11,; also recorded: CCL17, CCL18,; also recorded: CCL2, CCL20,; also recorded: CCL22, CCL28,; also recorded: CXL10, CXL11,; also recorded: SDF1, CXL14
CR14086 (LQTVITFALYVGQFLA) | CCL15, CCL2,; also recorded: CCL28, X3CL1
